Assay results from patent US10131652B2, “Pyrimidinyloxy benzene derivatives as herbicides” (E. I. DU PONT DE NEMOURS AND COMPANY, priority 2014, dated 2018).

What was measured:
Format in all cases: in vivo
[1] = tested on: barnyardgrass (Echinochloa crus-galli); test: Test B pre-/postemergence plant response
Method in brief: (§1)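 Evaluation is visual, about 10 days after application, rating injury from 0 (none) to 100 (complete control) relative to untreated controls. Application was a preemergence soil spray on seeded pots or a postemergence spray on one- to two-leaf plants.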

corn (Zea mays) [2] = test: Test B pre-/postemergence plant response
Method in brief: as §1

[3] = tested on: giant foxtail (Setaria faberii); test: Test B pre-/postemergence plant response
Method in brief: as §1

[4] = tested on: pigweed (Amaranthus retroflexus); test: Test B pre-/postemergence plant response
Method in brief: as §1

[5] = tested on: wheat (Triticum aestivum); test: Test B pre-/postemergence plant response
Method in brief: as §1

[6] = tested on: Italian ryegrass (Lolium multiflorum); test: Test D pre-/postemergence plant response; settings: Postemergence; for Plant response rating (scale 0 to 100), Ryegrass, Italian: 16 g ai/ha; for Plant response rating, Ryegrass, Italian: 125 g ai/ha
Method in brief: (§2)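 Test chemicals were formulated in a non-phytotoxic solvent mixture containing surfactant and applied either preemergence to seeds in loam–sand soil or postemergence to plants 2 to 18 cm tall (1- to 4-leaf stage). Response was rated visually against controls after 13 to 15 days, from 0 (none) to 100 (complete control).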

corn (Zea mays) [7] = test: Test D pre-/postemergence plant response; settings: Postemergence; for Plant response rating (scale 0 to 100), Corn: 16 g ai/ha; for Corn plant response rating: 31 g ai/ha, scale 0 to 100 (0 no effect, 100 complete control); for Plant response rating, Corn: scale 0 to 100, 0 no effect, 100 complete control
Method in brief: as §2

[8] = tested on: galium (catchweed bedstraw, Galium aparine); test: Test D pre-/postemergence plant response; settings: Postemergence; for Plant response rating (scale 0 to 100), Galium: 16 g ai/ha; for Galium plant response rating: 31 g ai/ha, scale 0 to 100 (0 no effect, 100 complete control); for Plant response rating, Galium: scale 0 to 100, 0 no effect, 100 complete control
Method in brief: as §2

[9] = tested on: lambsquarters (Chenopodium album); test: Test D pre-/postemergence plant response; settings: Postemergence; for Plant response rating (scale 0 to 100), Lambsquarters: 16 g ai/ha; for Plant response rating, Lambsquarters: 125 g ai/ha
Method in brief: as §2

[10] = tested on: large (Lg) crabgrass (Digitaria sanguinalis); test: Test D pre-/postemergence plant response; settings: Postemergence; for Plant response rating (scale 0 to 100), Crabgrass, Large: 16 g ai/ha; for Crabgrass, Large plant response rating: 31 g ai/ha, scale 0 to 100 (0 no effect, 100 complete control); for Plant response rating, Crabgrass, Large: scale 0 to 100, 0 no effect, 100 complete control
Method in brief: as §2

[11] = tested on: morningglory (Ipomoea coccinea); test: Test D pre-/postemergence plant response; settings: Postemergence; for Plant response rating (scale 0 to 100), Morningglory: 16 g ai/ha; for Plant response rating, Morningglory: 125 g ai/ha
Method in brief: as §2

[12] = tested on: ragweed (common ragweed, Ambrosia elatior); test: Test D pre-/postemergence plant response; settings: Postemergence; for Plant response rating (scale 0 to 100), Ragweed: 16 g ai/ha; for Plant response rating, Ragweed: 125 g ai/ha
Method in brief: as §2

soybean (Glycine max) = test: Test D pre-/postemergence plant response; settings: Postemergence; for Plant response rating (scale 0 to 100), Soybean: 16 g ai/ha; for Plant response rating, Soybean: 125 g ai/ha
Method in brief: as §2

[13] = tested on: waterhemp (common waterhemp, Amaranthus rudis); test: Test D pre-/postemergence plant response; settings: Postemergence; for Plant response rating (scale 0 to 100), Waterhemp: 16 g ai/ha; for Plant response rating, Waterhemp: 125 g ai/ha
Method in brief: as §2

[14] = tested on: winter wheat (Triticum aestivum); test: Test D pre-/postemergence plant response; settings: Postemergence; for Plant response rating (scale 0 to 100), Wheat: 16 g ai/ha; for Plant response rating, Wheat: 125 g ai/ha
Method in brief: as §2

[15] = tested on: yellow nutsedge (Cyperus esculentus); test: Test D pre-/postemergence plant response; settings: Postemergence; for Plant response rating (scale 0 to 100), Nutsedge, Yellow: 16 g ai/ha; for Plant response rating, Nutsedge, Yellow: 125 g ai/ha
Method in brief: as §2

[16] = 31 g ai/ha, Preemergence, 0 to 100 scale where 0 is no effect and 100 is complete control
[17] = 125 g ai/ha, postemergence, 0 to 100 scale, 0 no effect, 100 complete control
[18] = Postemergence, 31 g ai/ha, 0 to 100 scale (0 no effect, 100 complete control)
[19] = Preemergence, 125 g ai/ha, 0 to 100 scale (0 no effect, 100 complete control)
[20] = 31 g ai/ha, scale 0 to 100 (0 no effect, 100 complete control)
[21] = 62 g ai/ha, scale 0 to 100, 0 no effect, 100 complete control
[22] = scale 0 to 100, 0 no effect, 100 complete control

Structure (SMILES): FCc1cc(-c2ccccc2Oc2ncc(Cl)cn2)on1 [Compound 224]
- Plant response rating, Barnyardgrass [1, 16]: 10
- Plant response rating, Barnyardgrass [1, 17]: 50
- Plant response rating, Barnyardgrass [1, 18]: 30
- Barnyardgrass plant response rating [1, 19]: 50
- Plant response rating, Corn (corn (Zea mays) [2]; [17]): 20
- Plant response rating, Corn (corn (Zea mays) [2]; [18]): 0
- Plant response rating, Foxtail, Giant [3, 16]: 40
- Plant response rating, Foxtail, Giant [3, 17]: 50
- Plant response rating, Foxtail, Giant [3, 18]: 20
- Foxtail, Giant plant response rating [3, 19]: 90
- Plant response rating, Pigweed [4, 16]: 90
- Plant response rating, Pigweed [4, 17]: 100
- Plant response rating, Pigweed [4, 18]: 70
- Pigweed plant response rating [4, 19]: 100
- Plant response rating, Wheat [5, 17]: 0
- Plant response rating, Wheat [5, 18]: 0
- Plant response rating (scale 0 to 100), Ryegrass, Italian [6]: 0
- Ryegrass, Italian plant response rating [6, 20]: 0
- Ryegrass, Italian plant response rating [6, 21]: 0
- Plant response rating, Ryegrass, Italian [6, 22]: 0
- Plant response rating (scale 0 to 100), Corn (corn (Zea mays) [7]): 0
- Corn plant response rating (corn (Zea mays) [7]): 5
- Plant response rating, Corn (corn (Zea mays) [7]; 62 g ai/ha): 5
- Plant response rating, Corn (corn (Zea mays) [7]; 125 g ai/ha): 5
- Plant response rating (scale 0 to 100), Galium [8]: 40
- Galium plant response rating [8]: 50
- Plant response rating, Galium ([8]; 62 g ai/ha): 60
- Plant response rating, Galium ([8]; 125 g ai/ha): 60
- Plant response rating (scale 0 to 100), Lambsquarters [9]: 55
- Lambsquarters plant response rating [9, 20]: 75
- Lambsquarters plant response rating [9, 21]: 80
- Plant response rating, Lambsquarters [9, 22]: 85
- Plant response rating (scale 0 to 100), Crabgrass, Large [10]: 5
- Crabgrass, Large plant response rating [10]: 5
- Plant response rating, Crabgrass, Large ([10]; 62 g ai/ha): 10
- Plant response rating, Crabgrass, Large ([10]; 125 g ai/ha): 10
- Plant response rating (scale 0 to 100), Morningglory [11]: 15
- Morningglory plant response rating [11, 20]: 35
- Morningglory plant response rating [11, 21]: 35
- Plant response rating, Morningglory [11, 22]: 80
- Plant response rating (scale 0 to 100), Ragweed [12]: 30
- Ragweed plant response rating [12, 20]: 55
- Ragweed plant response rating [12, 21]: 55
- Plant response rating, Ragweed [12, 22]: 70
- Plant response rating (scale 0 to 100), Soybean (soybean (Glycine max)): 35
- Soybean plant response rating (soybean (Glycine max); [20]): 40
- Soybean plant response rating (soybean (Glycine max); [21]): 65
- Plant response rating, Soybean (soybean (Glycine max); [22]): 75
- Plant response rating (scale 0 to 100), Waterhemp [13]: 70
- Waterhemp plant response rating [13, 20]: 75
- Waterhemp plant response rating [13, 21]: 85
- Plant response rating, Waterhemp [13, 22]: 85
- Plant response rating (scale 0 to 100), Wheat [14]: 0
- Wheat plant response rating [14, 20]: 0
- Wheat plant response rating [14, 21]: 0
- Plant response rating, Wheat [14, 22]: 15
- Plant response rating (scale 0 to 100), Nutsedge, Yellow [15]: 0
- Nutsedge, Yellow plant response rating [15, 20]: 0
- Nutsedge, Yellow plant response rating [15, 21]: 5
- Plant response rating, Nutsedge, Yellow [15, 22]: 5

Structure (SMILES): Fc1cccc(Oc2ncc(Cl)cn2)c1-c1cc(C(F)(F)F)no1 [Compound 228]
- Plant response rating, Barnyardgrass [1, 16]: 50
- Plant response rating, Barnyardgrass [1, 17]: 70
- Plant response rating, Barnyardgrass [1, 18]: 30
- Barnyardgrass plant response rating [1, 19]: 100
- Plant response rating, Corn (corn (Zea mays) [2]; [17]): 30
- Plant response rating, Corn (corn (Zea mays) [2]; [18]): 20
- Plant response rating, Foxtail, Giant [3, 16]: 90
- Plant response rating, Foxtail, Giant [3, 17]: 90
- Plant response rating, Foxtail, Giant [3, 18]: 40
- Foxtail, Giant plant response rating [3, 19]: 100
- Plant response rating, Pigweed [4, 16]: 100
- Plant response rating, Pigweed [4, 17]: 100
- Plant response rating, Pigweed [4, 18]: 100
- Pigweed plant response rating [4, 19]: 100
- Plant response rating, Wheat [5, 17]: 50
- Plant response rating, Wheat [5, 18]: 0
- Plant response rating (scale 0 to 100), Ryegrass, Italian [6]: 0
- Ryegrass, Italian plant response rating [6, 20]: 5
- Ryegrass, Italian plant response rating [6, 21]: 15
- Plant response rating, Ryegrass, Italian [6, 22]: 25
- Plant response rating (scale 0 to 100), Corn (corn (Zea mays) [7]): 5
- Corn plant response rating (corn (Zea mays) [7]): 10
- Plant response rating, Corn (corn (Zea mays) [7]; 62 g ai/ha): 10
- Plant response rating, Corn (corn (Zea mays) [7]; 125 g ai/ha): 10
- Plant response rating (scale 0 to 100), Galium [8]: 85
- Galium plant response rating [8]: 98
- Plant response rating, Galium ([8]; 62 g ai/ha): 98
- Plant response rating, Galium ([8]; 125 g ai/ha): 100
- Plant response rating (scale 0 to 100), Lambsquarters [9]: 85
- Lambsquarters plant response rating [9, 20]: 85
- Lambsquarters plant response rating [9, 21]: 90
- Plant response rating, Lambsquarters [9, 22]: 95
- Plant response rating (scale 0 to 100), Crabgrass, Large [10]: 15
- Crabgrass, Large plant response rating [10]: 20
- Plant response rating, Crabgrass, Large ([10]; 62 g ai/ha): 35
- Plant response rating, Crabgrass, Large ([10]; 125 g ai/ha): 45
- Plant response rating (scale 0 to 100), Morningglory [11]: 65
- Morningglory plant response rating [11, 20]: 65
- Morningglory plant response rating [11, 21]: 80
- Plant response rating, Morningglory [11, 22]: 75
- Plant response rating (scale 0 to 100), Ragweed [12]: 20
- Ragweed plant response rating [12, 20]: 35
- Ragweed plant response rating [12, 21]: 60
- Plant response rating, Ragweed [12, 22]: 60
- Plant response rating (scale 0 to 100), Soybean (soybean (Glycine max)): 60
- Soybean plant response rating (soybean (Glycine max); [20]): 55
- Soybean plant response rating (soybean (Glycine max); [21]): 80
- Plant response rating, Soybean (soybean (Glycine max); [22]): 80
- Plant response rating (scale 0 to 100), Waterhemp [13]: 90
- Waterhemp plant response rating [13, 20]: 95
- Waterhemp plant response rating [13, 21]: 95
- Plant response rating, Waterhemp [13, 22]: 100
- Plant response rating (scale 0 to 100), Wheat [14]: 0
- Wheat plant response rating [14, 20]: 5
- Wheat plant response rating [14, 21]: 10
- Plant response rating, Wheat [14, 22]: 10
- Plant response rating (scale 0 to 100), Nutsedge, Yellow [15]: 5
- Nutsedge, Yellow plant response rating [15, 20]: 5
- Nutsedge, Yellow plant response rating [15, 21]: 5
- Plant response rating, Nutsedge, Yellow [15, 22]: 10
